Measurements: ChEMBL document CHEMBL3507680, “University of Dundee, Gates Library screen for HepG2 cell viability”

Experiment: Human HepG2 cell viability assay in 384 well format
Format: toxicity, cell-based
Parameters: dose 125 nL, time 70.5 hour; concentration not given beside the values
Conditions: HepG2 cells, read-out: Inhibition

| SMILES | cytotoxicity at 70.5 h |
| --- | --- |
| CC(=O)N[C@@H]1CN(C2CCN(c3ccccc3F)CC2)C[C@H]1C(C)C | -10.5% |
| CCC(=O)Nc1c(C)nn(COc2cccc(F)c2)c1C | -2.04% |
| CC(C)C(NC(=O)c1cnc(N2CCOCC2)nc1)c1cccs1 (stereo not given) | 7.3% |
| CCOc1c(F)cccc1C(=O)N(CC)C(C)c1ccncc1 (stereo not given) | -4.06% |
| CC(NC(=O)CCc1nc(C(C)(C)C)no1)c1nnc2n1CCC2 (stereo not given) | -7.28% |
| Fc1ccc(N2CCCN(c3ccc(Cn4ccnc4)cn3)CC2)cc1 | 2.18% |
| CCc1nnc2n1CCN(Cc1csc(-c3ccccc3F)n1)C2 | -7.77% |
| CCn1ccnc1CN1CCN(Cc2cnc(C)cn2)CC1C (stereo not given) | 4.47% |
| O=C(c1cc2c([nH]c1=O)CCC2)N1CCCC1c1ccccc1 (stereo not given) | -4.54% |
| Cc1ccsc1-c1nc(CN(C)Cc2noc(C(C)C)n2)c(C)o1 | -10.3% |
| CCC[C@H]1CN(CCS(C)(=O)=O)C[C@@H]1NC(=O)c1ccn(C)n1 | -4.29% |
| O=C(O)[C@H]1C[C@@H](C(=O)NCc2ccncc2)CN(Cc2ccccc2)C1 | -1.34% |
| Cn1cncc1-c1nnc([C@H]2CCN(CC3CCCCC3)C2)o1 | -1.28% |
| CN(CC1COc2ccccc2O1)C(=O)NCCCn1cccn1 (stereo not given) | -8.71% |
| CCN(CC)c1ccc2ccc(C(=O)O)cn12 | -5.88% |
| COc1cccc(OCC2CCCN(C(=O)CCc3cc(O)no3)C2)c1 (stereo not given) | -21.1% |
| CNC(=O)c1ccc(C(=O)N2CCC(Nc3cccnn3)CC2)cn1 | -4.73% |
| O=C1CO[C@@H]2CN(CC3CCOCC3)C[C@H]2N1CC1CC1 | -2.81% |
| CCc1nc(CN2CC(C(=O)OC)O[C@H](C)C2)cs1 (stereo not given in full) | -8.81% |
| Cn1cc(C(=O)N[C@@H]2CN(Cc3cccs3)[C@@H]3CCCO[C@@H]32)cn1 | -14.7% |
| CC(C)Cc1ncc2c(n1)CN(C(=O)c1ccc(CN3CCCC3)o1)C2 | -7.27% |
| Cc1noc(C)c1CN1C[C@@H]2CC[C@H](C1)N(Cc1cc(F)cc(F)c1)C2 | -14.1% |
| CCC(=O)N1CCN(C(=O)Nc2ccc(Cl)cc2)[C@H]2CS(=O)(=O)C[C@H]21 | -14.3% |
| CCc1ccsc1C(=O)N1CCN(C(=O)CC(F)(F)F)CC1 | 3.81% |
| COc1nc2ccccc2cc1C1CC(=O)Nc2n[nH]c(C3CCC3)c21 (stereo not given) | 4.02% |
| CN(c1ccccc1)S(=O)(=O)c1cc2c(c(C(=O)O)c1)OCCO2 | -9.42% |
| CS(=O)(=O)CCOCCNc1ccc(Br)cn1 | -3.34% |

| SMILES | cytotoxicity at 70.5 h |
| --- | --- |
| CCCC(C)CS(=O)(=O)NCc1cccnc1N(C)C (stereo not given) | -1.93% |
| Cc1ccc2cc(C(=O)N3CCN(C(=O)c4ccoc4)CC3)[nH]c2c1 | 8.19% |
| CN(C)C[C@]12COC[C@H]1CN(C(=O)CCc1ccccc1)C2 | -11.8% |
| COC(=O)c1ccc(N(C(=O)c2cccnc2C)C(C)C)c(C)c1 | -7.81% |
| COCc1nn(C(C)C)c2c1CCN(Cc1ccoc1)C2 | -6.52% |
| CC(C)(C)c1cc(NC(=O)CN2CCc3cncnc3C2)on1 | 3.44% |
| CC(C(=O)NC1CC1)n1nc(-c2cccs2)cc(N)c1=O (stereo not given) | 6.89% |
| CN1CCCC(N2CCN(c3nc4ccccn4c3C#N)CC2)C1 (stereo not given) | 11.1% |
| CSc1ccc(C(C)NC(=O)c2cc(C)on2)cc1 (stereo not given) | -4.63% |
| Cc1nnc(CN2CCCC2c2ccc3c(c2)OCCCO3)n1C (stereo not given) | -5.99% |
| Cc1cc(N2CCN(Cc3ccc(C)o3)CC2)cc(C)n1 | -9.4% |
| c1nc(N2CCCC(Cn3cncn3)C2)c2ccsc2n1 (stereo not given) | 38.8% |
| COCC(=O)N1CCC(C(=O)Nc2ccc(C(C)=O)cc2)CC1 | -7.91% |
| COc1ccc(OC)c(S(=O)(=O)NC(=O)C(C)OC)c1 (stereo not given) | -13.3% |
| CCC(C)(CO)NC(=O)Nc1cc2c(cc1SC)OCCO2 (stereo not given) | -1.22% |
| CCn1nc(CC(C)C)cc1C(=O)N1CCOCC(O)C1 (stereo not given) | -2.68% |
| CCOc1ccccc1CC(=O)N1C[C@@H](C(=O)O)[C@H](C2CC2)C1 | -1.88% |
| CC1CN(C)CCN1C(=O)c1cnn(-c2cccc(Cl)c2)c1 (stereo not given) | -9.03% |
| Cc1ccc(C(=O)N2CCCC3(CCCC(=O)N3C)C2)cc1F (stereo not given) | -4.57% |
| Cc1cccc(C)c1Oc1ncccc1CNC(=O)C1COC(=O)N1 (stereo not given) | -21.8% |
| Cc1ccc(F)c2c1N(C(=O)Cc1c(C)nn(C)c1C)CCC2 | -8.9% |
| O=C(CNCCn1cccn1)NCC1(c2ccccc2)CC1 | -4.79% |
| c1ccc(-c2cnc(CN3CCn4c(nnc4C4CC4)C3)o2)cc1 | -9.82% |
| OCC1CCCN(c2ncnc3c2Cc2ccccc2OC3)C1 (stereo not given) | -5.22% |
| CN(C)CCNc1ccc(-c2nc(COc3ccccc3)no2)cn1 | 3.62% |
| COc1ccc(CNC(=O)C2=NN(c3ccc(C)cc3)C(=O)CN2)cc1 | -5.36% |
| Cc1nc(C(=O)N2CCOC(c3nc(C(C)C)n[nH]3)C2)c[nH]1 (stereo not given) | -2.01% |

| SMILES | cytotoxicity at 70.5 h |
| --- | --- |
| COc1cc(CNCc2ccnc(N3CCOCC3)c2)cc(Cl)c1OC | -18.7% |
| OCc1ccc(-c2nccn2CCc2nc3c(s2)CCCC3)o1 | 9.89% |
| Cc1n[nH]c(C2CN(CCNC3CCCCC3)CCO2)n1 (stereo not given) | 3.49% |
| COC(=O)c1ccc(NC(=O)CCc2ccncc2)c(C)c1 | -11.9% |
| CC1COCCN1C(=O)NCCCn1ccnc1 (stereo not given) | -2.86% |
| c1ccc(-c2cc(CN3C[C@@H]4CC[C@H](C3)N(CC3CCC3)C4)on2)cc1 | -11.6% |
| Cc1cccnc1CN1CC[C@H](Oc2cccc(F)c2)[C@@](C)(O)C1 | -0.828% |
| N#Cc1cccc(NC2CC(=O)N(C3Cc4ccccc4C3)C2)n1 (stereo not given) | 19% |
| COc1cccc(COC(C)C(=O)NCc2nnc3n2CCC3)c1 (stereo not given) | -1.81% |
| c1cncc(COCc2n[nH]c3c2CN(Cc2ccco2)C3)c1 | -1.5% |
| Cn1nccc1CN1CCOC(c2cccc(-c3cncnc3)n2)C1 (stereo not given) | 14.3% |
| CN1CCNC(Cc2ccc(-c3ccccc3)cc2)C1=O (stereo not given) | 21.5% |
| Cc1nn(C)c(C)c1C1CCCN1C(=O)c1ccc2c(c1)OCCO2 (stereo not given) | -7.1% |
| CC(C)CN1CCC2(CCN(Cc3ccc(F)cc3)CC2)C1=O | -5.32% |
| CC(=O)N1CCCC(C(=O)N2CCN(Cc3cc(C)on3)CC2)C1 (stereo not given) | 2.35% |
| Cc1ccc(CN(Cc2c[nH]cn2)C2CC(C)(C)NC(C)(C)C2)o1 | -9.95% |
| Cc1c(C(=O)N2CCC3(CCC(=O)N(CCN(C)C)C3)CC2)ccn1C | 0.579% |
| O=C(c1csc2nc(-c3ccc(Cl)cc3)cn12)N1CCCC(CO)C1 (stereo not given) | -5.49% |
| Cc1nn(C)cc1NC(=O)CN1CCC(Oc2cnccn2)CC1 | -4.13% |
| CCc1ccc(S(=O)(=O)Nc2cc(OC)c(OC)cc2C(=O)O)s1 | 4.71% |
| CN1CC2(CCN(C(=O)c3ccc4nccnc4c3)CC2)CC1=O | -4.39% |
| CCc1ccc(S(=O)(=O)Nc2cnccc2C)s1 | -4.13% |
| CC(C)C(=O)N1CCCC12CCCN(C(=O)c1ccno1)C2 (stereo not given) | 13.3% |
| COc1cc(CNC(=O)c2c(C)noc2C(C)C)ccn1 | -2.32% |
| Cc1nn(C)c(N2CCOCC2)c1CNC(C)c1cccs1 (stereo not given) | -1.47% |
| COCCS(=O)(=O)N(Cc1ccsc1)c1ccccc1 | 2.67% |
